Measurements published in patent US12558368B2, “Compositions and devices for systemic delivery of uridine” (PHARMA CINQ, LLC, priority 2018, dated 2026).

Legend:
[1] = tested on: mortality caused by 3-nitropropionic acid (inhibitor of Complex II of the mitochondrial respiratory chain); test: Protection against mortality caused by 3-nitropropionic acid (Example 1; uridine and MgBHB); assay type: in vivo, Female CD-1 mice; settings: 3-NP 60 mg/kg/day i.p., s.c. uridine 300 mg/kg b.i.d. and/or MgBHB 300 mg/kg b.i.d.; for Median Survival: 13 day study; for % Survival: end of 13 day study, 10 mice per group
Source text: 3-nitropropionic acid (3-NP) is an inhibitor of Complex II of the mitochondrial respiratory chain. Administration of 3-NP to experimental animals has been used as a model for mitochondrial diseases, Huntington's disease and pathological consequences of hypoxia. Daily dosing with 3-NP causes energy failure in the brain, heart and other tissues, resulting in mortality after several days. A 3-NP dosing regimen that caused 100% mortality in mice after approximately one week was selected for further evaluation of mortality, which is indicative of neuroprotective and cardioprotective effects, of compositions of the invention in a model of disorders caused by mitochondrial dysfunction. Survival times (median survival; the time point at which 50% of animals in a group had died) and percent survival at the end of the 13 day study were used to quantify protective effects of the test agents.
Female CD-1 mice at approximately 16 weeks of age were divided into weight-matched groups of 10 mice each. All mice received daily intraperitoneal injections of 3-NP (60 mg/kg) in a volume of 0.01 ml per gram of body weight. 3-NP was administered at 2 PM on each of the 13 consecutive days of the experiment. Body weights were recorded each day to adjust drug doses as mice lost weight during repeated treatment with 3-NP.
The comparative efficacy of uridine (VWR International) and the magnesium salt of racemic beta-hydroxybutyrate (magnesium β-hydroxybutyrate trihydrate; MgBHB·3H2O) (Nutra Planet) were assessed, as was the efficacy of a combination of uridine and MgBHB. All of the therapeutic treatments were administered by subcutaneous injection in a volume of 0.02 ml/gram of body weight twice per day, at 7 AM and 1 PM.
• 1. Vehicle Control—0.9% saline b.i.d. • 2. Uridine 300 mg/kg b.i.d. • 3. MgBHB 300 mg/kg b.i.d.

[2] = tested on: mortality caused by 3-nitropropionic acid (inhibitor of Complex II of the mitochondrial respiratory chain); test: Protection against mortality caused by 3-nitropropionic acid (Example 2; uridine, Na(DL-BHB), Na(D-BHB)); assay type: in vivo, Female CD-1 mice; settings: 3-NP 60 mg/kg/day i.p., s.c. uridine 200 mg/kg t.i.d. and/or Na(DL-BHB) or Na(D-BHB) 328 mg/kg t.i.d.; for Median Survival: 12 day study; for % Survival: end of 12 day study, 10 mice per group
Experimental: Mitochondrial dysfunction was produced by daily administration of 3-nitropropionic acid (60 mg/kg/day) by intraperitoneal injection. Groups of mice also received saline (control), uridine, DL-BHB, D-BHB, and combinations of uridine and D-BHB and DL-BHB as indicated below. Both D- and DL-BHB were administered as the water soluble sodium salts: Na(D-BHB) (Toronto Research Chemicals, catalog #H833025) and Na(DL-BHB) (VWR International, catalog #200012-200).
• 1. Vehicle Control—0.9% saline b.i.d. • 2. Uridine 200 mg/kg t.i.d. • 3. Na (DL-BHB) 328 mg/kg t.i.d. • 4. Na (D-BHB) 328 mg/kg t.i.d. • 5. Uridine 200 mg/kg+Na (DL-BHB) 328 mg/kg t.i.d. • 6. Uridine 200 mg/kg+Na (D-BHB) 328 mg/kg t.i.d.
Survival times (median survival; the time point at which 50% of animals in a group had died) and percent survival at the end of the 12 day study were used to quantify and compare protective effects of the test agents.
Female CD-1 mice at approximately 16 weeks of age were divided into weight-matched groups of 10 mice each. All mice received daily intraperitoneal injections of 3-NP (60 mg/kg) in a volume of 0.01 ml per gram of body weight at 5 PM.
The therapeutic treatments were administered by subcutaneous injection in a volume of 0.01 ml/gram of body weight three times per day, at 7 AM and 12 PM and 4 PM. 3-NP was administered at 5 PM on each of the consecutive days of the experiment. Body weights were recorded each day to adjust drug doses as mice lost weight during repeated treatment with 3-NP. Body weight was graphed for the various groups of mice until the group size decreased below 3.

[3] = tested on: mortality caused by 3-nitropropionic acid (inhibitor of Complex II of the mitochondrial respiratory chain); test: Protection against mortality caused by 3-nitropropionic acid at 65 or 70 mg/kg/day (Example 3; uridine, Na(D-BHB)); assay type: in vivo, Female CD-1 mice; settings: s.c. uridine 200 mg/kg t.i.d. and/or Na(D-BHB) 985 mg/kg t.i.d.; for % Survival: end of study, 10 mice per group
Source text: Subcutaneous administration of therapeutic agents is a suitable route of administration for emergency drugs that are intended to be used in people with traumatic brain injury, stroke or asphyxia, where the patient may not be capable of ingesting oral medications or may be in a situation where it is difficult to place an intravenous catheter. Subcutaneous drug administration is practical, but the composition must conform to volumes and osmolality values that are known to be compatible with this route of administration; excessively high osmolality can cause local edema, and volumes must be low enough for injection without problematic back pressure. Compositions comprising uridine, sodium beta-hydroxybutyrate and a combination of the two, with the osmolality restricted to a maximum of 800 milliosmoles/liter (a value known to be acceptable for subcutaneous fluid administration) were tested in a model of whole-body energy failure induced by daily intraperitoneal injections of 3-nitropropionic acid at two dose levels, 65 mg/kg/day and 70 mg/kg/day.
Survival times (median survival; the time point at which 50% of animals in a group had died) and percent survival at the end of a 13 day study were used to quantify and compare protective effects of the test agents.
Female CD-1 mice at approximately 16 weeks of age were divided into weight-matched groups of 10 mice each. All mice received daily intraperitoneal injections of 3-NP (65 mg/kg or 70 mg/kg) in a volume of 0.01 ml per gram of body weight at 5 PM.
The therapeutic treatments were administered by subcutaneous injection in a volume of 0.02 ml/gram of body weight three times per day, at 7 AM and 12 PM and 4 PM. 3-NP was administered at 5 PM on each of the consecutive days of the experiment. Body weights were recorded each day to adjust drug doses as mice lost weight during repeated treatment with 3-NP. D-BHB was administered as the water soluble sodium salt Na(D-BHB) (Toronto Research Chemicals, catalog #H833025.
1. Vehicle Control—0.9% saline t.i.d.
2. Uridine 200 mg/kg t.i.d.
3. Na(D-BHB) 985 mg/kg t.i.d.
4. Uridine 200 mg/kg+Na(D-BHB) 985 mg/kg t.i.d.

[4] = Pharmacokinetics of plasma uridine and D-BHB after subcutaneous administration; assay type: in vivo, Female CD-1 mice; settings: mice
Experimental: Groups of 8 mice (Female CD-1 mice, approximately 16 weeks old) were treated with subcutaneous uridine or uridine plus Na(D-BHB) as indicated in the table below. D-BHB was administered as the water soluble sodium salt Na(D-BHB) (Toronto Research Chemicals, catalog #H833025
• 1. Group 1 (200 mg/kg Uridine+Na(D-BHB) received 10 mg/ml uridine and 49.26 mg/ml Na(D-BHB) (0.02 ml/g bw). • 2. Group 2 (300 mg/kg Uridine+Na(D-BHB) received 15 mg/ml uridine and 49.26 mg/ml Na(D-BHB) (0.02 ml/g bw). • 3. Group 3 (400 mg/kg Uridine+Na(D-BHB) received 20 mg/ml uridine and 49.26 mg/ml Na(D-BHB) (0.02 ml/g bw). • 4. Group 4 (400 mg/kg Uridine) received 20 mg/ml uridine (0.02 ml/g bw).
Blood samples were obtained from the retro-orbital plexus at time points of 15, 30, 60 and 120 minutes after drug injection. Two blood samples (<200 microliters) were collected from each mouse into heparinized polyethylene tubes, with 4 mice bled at 15 and 60 minutes, and the other 4 mice in a group were bled at 30 and 120 minutes. Plasma samples were obtained by centrifugation, and were deproteinized and analyzed for uridine and uracil by an LC/MS method. Plasma D-BHB was measured in the same samples by a commercial enzymatic color-change assay.
Rodents degrade uridine to uracil more rapidly and extensively than do humans, who have lower activities of the enzyme uridine phosphorylase. Therefore, it is important to take into account plasma uracil concentrations in rodents for optimum translation of rodent pharmacokinetic results to the human situation. The sum of uridine+uracil in rodents is a better reflection of plasma uridine equivalents than is uridine alone for translation to other animal models or to human dosing.

[5] = humans, cited from earlier work
[6] = s.c. Na(D-BHB) 985.1 mg/kg with uridine

Compound | Median Survival [1] [days] | % Survival [1] | Median Survival [2] [days] | Median Survival ([3]; 3-NP 65 mg/kg/day i.p.) [days] | % Survival ([3]; 3-NP 65 mg/kg/day i.p.) | Median Survival ([3]; 3-NP 70 mg/kg/day i.p.) [days] | % Survival ([3]; 3-NP 70 mg/kg/day i.p.) | Tmax ([4]; female, CD-1, mouse, plasma, sc, s.c. uridine 200-400 mg/kg with or without Na(D-BHB) 985.1 mg/kg, read-out: Tmax of plasma uridine (and uridine+uracil)) [min] | Plasma uridine (and uridine+uracil) C max values ([4]; s.c. uridine 200, 300, 400 mg/kg) | Local tolerability of infusion into peripheral veins ([5]; infusion into accessible peripheral veins) | Dose-limiting toxicity during intravenous infusion ([5]; intravenous infusion) | Median Survival ([2]; listed as Na(D-BHB)) [days] | % Survival [2] | % Survival ([2]; listed as Na(D-BHB)) [%] | Maximum D-BHB concentration in plasma [4, 6] | Tmax of plasma D-BHB [4, 6] [min] | Median Survival ([2]; listed as Na(DL-BHB)) [days] | % Survival ([2]; listed as Na(DL-BHB)) [%]
magnesium β-hydroxybutyrate trihydrate [MgBHB] | 10 | 20% (2/10) |  |  |  |  |  |  |  |  |  |  |  |  |  |  |  | 
O=c1ccn([C@@H]2O[C@H](CO)[C@@H](O)[C@H]2O)c(=O)[nH]1 [Uridine, uridine] | 12 | 40% (4/10) | 12 | 9 | 30% (3/10) | 6.5 | 10% (1/10) | 15 to 30 | dose-dependent | caused local phlebitis | Hyperthermia was encountered as a dose-limiting toxicity |  |  |  |  |  |  | 
C[C@@H](O)CC(=O)[O-].[Na+] [Na (D-BHB)] |  |  | 7.5 | 10.5 | 40% (4/10) | 6 | 0% (0/10) |  |  |  |  | 8 | 10% (1/10) | 10 | approximately 3 millimolar | 15 |  | 
CC(O)CC(=O)[O-].[Na+] (racemic) [Na (DL-BHB)] |  |  | 8 |  |  |  |  |  |  |  |  |  | 20% (2/10) |  |  |  | 7.5 | 20
